Source: ChEMBL document CHEMBL1201862, “PubChem BioAssay data set” (2004)
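Test compounds were applied to cells in 96-well plates for 48 hours at 5 doses. Here, GI50 denotes the concentration required for 50% inhibition of growth.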 Activity calls are given as the source filed them. No stated cut-off is given here; in the data, active = GI50 up to about 1.1 µM and inactive = higher.

Assays:
Assay in all cases: NCI tumour cell line growth inhibition, 48 h
A498 = system: A498
EKVX = system: EKVX
HCC 2998 = system: HCC 2998
HCT-116 = system: HCT-116
HL-60 = system: HL-60
HOP-62 = system: HOP-62
HT-29 = system: HT-29
IGROV-1 = system: IGROV-1
LOX IMVI = system: LOX IMVI
MCF7 = system: MCF7
MOLT-4 = system: MOLT-4
Malme-3M = system: Malme-3M
RPMI-8226 = system: RPMI-8226
RXF 393 = system: RXF 393
SF-268 = system: SF-268
SF-295 = system: SF-295
SK-MEL-28 = system: SK-MEL-28
SNB-19 = system: SNB-19
UACC-257 = system: UACC-257
MDA-MB-435 = system: MDA-MB-435

SMILES | GI50 (A498) | GI50 (EKVX) | GI50 (HCC 2998) | GI50 (HCT-116) | GI50 (HL-60) | GI50 (HOP-62) | GI50 (HT-29) | GI50 (IGROV-1) | GI50 (LOX IMVI) | GI50 (MCF7) | GI50 (MOLT-4) | GI50 (Malme-3M) | GI50 (RPMI-8226) | GI50 (RXF 393) | GI50 (SF-268) | GI50 (SF-295) | GI50 (SK-MEL-28) | GI50 (SNB-19) | GI50 (UACC-257) | GI50 (MDA-MB-435)
COC(=O)C(C/C=C(\C)c1ccccc1)C(C)=O (stereo not given) | > 100 µM (inactive) | > 100 µM (inactive) | > 100 µM (inactive) | 57.1 µM (inactive) | 21.4 µM (inactive) | > 100 µM (inactive) | 83.9 µM (inactive) | > 100 µM (inactive) | 68.2 µM (inactive) | > 70.3 µM (inactive) | 16.4 µM (inactive) | > 100 µM (inactive) | 27.2 µM (inactive) | > 100 µM (inactive) | 97.3 µM (inactive) | 18.4 µM (inactive) | > 100 µM (inactive) | > 100 µM (inactive) | > 48.3 µM (inactive) | 
NS(=O)(=O)c1ccc(NC(=O)C2C(=O)C(=O)N(c3ccc(S(N)(=O)=O)cc3)C2=O)cc1 (stereo not given) | > 100 µM (inactive) | > 100 µM (inactive) | > 100 µM (inactive) | > 100 µM (inactive) | > 10 µM (inactive) | > 100 µM (inactive) | > 100 µM (inactive) | > 100 µM (inactive) | > 100 µM (inactive) |  | > 100 µM (inactive) | > 100 µM (inactive) | > 100 µM (inactive) | > 100 µM (inactive) | > 100 µM (inactive) | > 100 µM (inactive) | > 100 µM (inactive) | > 100 µM (inactive) | > 100 µM (inactive) | 
CCn1nc(C)c2c1C(=O)NCC(=O)N2 | > 100 µM (inactive) | > 100 µM (inactive) |  | > 100 µM (inactive) |  |  | > 100 µM (inactive) | > 100 µM (inactive) |  |  |  |  |  | > 100 µM (inactive) | > 100 µM (inactive) | > 100 µM (inactive) | > 100 µM (inactive) | > 100 µM (inactive) | > 100 µM (inactive) | > 100 µM (inactive)
Cc1ccc(NC(=O)C2C(=O)N(c3ccc(C)c(C)c3)C(=O)/C2=N\NC(N)=O)cc1C (stereo not given) | > 100 µM (inactive) | 55.8 µM (inactive) | > 100 µM (inactive) | 85.3 µM (inactive) | 81.5 µM (inactive) | > 100 µM (inactive) | > 100 µM (inactive) | 89.5 µM (inactive) | > 100 µM (inactive) |  | 88.9 µM (inactive) | > 100 µM (inactive) | 69.2 µM (inactive) | > 100 µM (inactive) | 74 µM (inactive) | 86.9 µM (inactive) | > 100 µM (inactive) | > 100 µM (inactive) | > 100 µM (inactive) | 
CCOC(=O)c1sc2nc(SC)nc3c2c1NCN3C | 15.2 µM (inactive) |  | 62.1 µM (inactive) | 22 µM (inactive) |  | 15.1 µM (inactive) | > 100 µM (inactive) | 13 µM (inactive) | 36 µM (inactive) |  |  | 24.8 µM (inactive) | > 100 µM (inactive) | 13.2 µM (inactive) | 16.7 µM (inactive) | 27.9 µM (inactive) | > 100 µM (inactive) | 20.5 µM (inactive) | > 100 µM (inactive) | > 100 µM (inactive)
O=NN(CCF)C(=O)NC1CC2CCC1C2 (stereo not given) | > 100 µM (inactive) | > 100 µM (inactive) | > 100 µM (inactive) | > 100 µM (inactive) | 38.7 µM (inactive) | > 84.1 µM (inactive) | > 100 µM (inactive) | > 72.9 µM (inactive) | 84.7 µM (inactive) | 98.9 µM (inactive) | > 100 µM (inactive) | > 100 µM (inactive) | > 54.3 µM (inactive) | > 100 µM (inactive) | > 100 µM (inactive) | > 100 µM (inactive) | > 100 µM (inactive) | > 100 µM (inactive) | > 100 µM (inactive) | 
O=c1c2cc([N+](=O)[O-])ccc2sc2ccsc12 | > 100 µM (inactive) | > 100 µM (inactive) | > 100 µM (inactive) | > 100 µM (inactive) | > 100 µM (inactive) | > 100 µM (inactive) | > 100 µM (inactive) | > 100 µM (inactive) | > 100 µM (inactive) |  | > 100 µM (inactive) | > 100 µM (inactive) | > 100 µM (inactive) | > 100 µM (inactive) | > 100 µM (inactive) | > 100 µM (inactive) | > 100 µM (inactive) | > 100 µM (inactive) | > 100 µM (inactive) | 
COc1cccc(-c2nc3c(C(=O)NCCN(C)C)cccc3[nH]2)c1 | 16.3 µM (inactive) | 34.4 µM (inactive) | 15.6 µM (inactive) | 7.73 µM (inactive) | 15.7 µM (inactive) | 15.1 µM (inactive) | 11 µM (inactive) | 21.4 µM (inactive) | 13.3 µM (inactive) | 21.8 µM (inactive) | 3.38 µM (inactive) | 14 µM (inactive) | 13.2 µM (inactive) | 20.7 µM (inactive) | 13.2 µM (inactive) | 16.2 µM (inactive) | 15.8 µM (inactive) | 31.3 µM (inactive) | 16.1 µM (inactive) | 
O=C(CC1(O)C(=O)Nc2ccccc21)c1ccc2ccccc2c1 (stereo not given) | > 100 µM (inactive) | > 100 µM (inactive) | > 100 µM (inactive) | > 100 µM (inactive) | > 100 µM (inactive) | > 100 µM (inactive) | > 100 µM (inactive) | > 100 µM (inactive) | > 100 µM (inactive) |  | > 100 µM (inactive) | > 100 µM (inactive) | > 100 µM (inactive) | > 100 µM (inactive) | > 100 µM (inactive) | > 100 µM (inactive) | > 100 µM (inactive) | > 100 µM (inactive) | > 100 µM (inactive) | 
CCOC(=O)C1=C(C(C)=O)CSC(c2ccccc2)=N1 | > 100 µM (inactive) | > 100 µM (inactive) | > 100 µM (inactive) | > 100 µM (inactive) | > 100 µM (inactive) |  | > 100 µM (inactive) | > 100 µM (inactive) | > 100 µM (inactive) | 40.7 µM (inactive) | > 100 µM (inactive) | > 100 µM (inactive) | > 100 µM (inactive) | > 100 µM (inactive) | > 100 µM (inactive) | > 100 µM (inactive) | > 100 µM (inactive) | > 100 µM (inactive) | > 100 µM (inactive) | 
O=C(c1ccccc1O)c1cc(-c2ncc3c(=O)c4ccccc4oc3n2)c(-c2ccccc2O)[nH]c1=O | 21.3 µM (inactive) | 36.5 µM (inactive) | 17 µM (inactive) | 20.7 µM (inactive) | 24.9 µM (inactive) | 18.5 µM (inactive) | 28.2 µM (inactive) | 26.9 µM (inactive) | 18.6 µM (inactive) | 14.3 µM (inactive) | 18.1 µM (inactive) | 30 µM (inactive) | 20.1 µM (inactive) | 23.4 µM (inactive) | 22.5 µM (inactive) | 11.4 µM (inactive) | 23.6 µM (inactive) | 8.73 µM (inactive) | 18.9 µM (inactive) | 
O=C(/C=C/c1ccccc1O)/C=C/c1ccccc1O | 1.82 µM (inactive) |  |  | 0.332 µM (active) | 2.9 µM (inactive) | 2.26 µM (inactive) | 1.92 µM (inactive) | 1.64 µM (inactive) | 0.252 µM (active) |  | 1.26 µM (inactive) | 2.11 µM (inactive) | 0.19 µM (active) |  | 0.254 µM (active) | 1.67 µM (inactive) | 1.81 µM (inactive) | 1.82 µM (inactive) | 4.43 µM (inactive) | 1.95 µM (inactive)
